Data published in patent US11963985B2, “Coral composite extract, composition including the same and method of producing the same” (National Sun Yat-Sen University, priority 2018, dated 2024).

Test: partition coefficient (log P) of EXC-B
Assay type: physicochemical
Description: Next, as STEP 103 depicts, the crude extraction step is performed on the coral staring material to obtain a crude extract, in which a first solvent is applied. In one embodiment, there is no limitation of the kind of the first solvent. However, the one having a polarity index P′ value closer to a polarity index P′ value of the coral composite extract is the better. For example, a partition coefficient (log P) of EXC-B is about 0.9 and an octanol-water partition coefficient (Clog P) of EXC-B is about 3.5568. Therefore, the polarity index P′ value of the first solvent can be 0.1 to 6.0, but 1.0 to 5.4 is better.

excavatolide B [EXC-B]
partition coefficient (log P): about 0.9
